Columns and labels:
[1] = target: Myeloid Cell Leukemia 1 (Mcl-1) (Homo sapiens (Human), UniProt Q07820); experiment: Terbium labeled Mcl-1 HTRF binding assay (displacement of Cy5-labeled BIM BH3 peptide); details: 25 pM Tb-Mcl-1, 8 nM Cy5 Bim peptide, Ki=IC50/(1+[L]/Kd), [L]=8 nM, Kd=10 nM, read-out: TB-MCL1 Ki
Procedure: Terbium labeled Myeloid Cell Leukemia 1 (Mcl-1) homogeneous time-resolved fluorescence (HTRF) binding assay utilizing the BIM BH3 peptide (H2N-(C/Cy5Mal) WIAQELRRIGDEFN-OH) as the binding partner for Mcl-1.
This assay evaluated inhibition of the BH3 domain: Mcl-1 interaction by measuring the displacement of Cy5-labeled BIM BH3 peptide (H2N—(C/Cy5Mal) WIAQELRRIGDEFN-OH) in the HTRF assay format.
The following assay and stock buffers were prepared for use in the assay: (a) Stock buffer: 10 mM Tris-HCl, pH=7.5+150 mM NaCl, filtered, sterilized, and stored at 4° C.; and (b) 1× assay buffer, where the following ingredients were added fresh to stock buffer: 2 mM dithiothreitol (DTT), 0.0025% Tween-20, 0.1 mg/mL bovine serum albumin (BSA). The 1×Tb-Mcl-1+Cy5 Bim peptide solution was prepared by diluting the protein stock solution using the 1× assay buffer (b) to 25 pM Tb-Mcl-1 and 8 nM Cy5 Bim peptide.
Using the Acoustic ECHO, 100 nL of 100× test compound(s) were dispensed into individual wells of a white 384-well Perkin Elmer Proxiplate, for a final compound concentration of 1× and final DMSO concentration of 1%. Inhibitor control and neutral control (NC, 100 nL of 100% DMSO) were stamped into columns 23 and 24 of assay plate, respectively. Into each well of the plate was then dispensed 10 μL of the 1×Tb-Mcl-1+Cy5 Bim peptide solution. The plate was centrifuged with a cover plate at 1000 rpm for 1 minute, then incubated for 60 minutes at room temperature with plates covered. The TR-FRET signal was read on an BMG PHERAStar FSX MicroPlate Reader at room temperature using the HTRF optic module (HTRF: excitation: 337 nm, light source: laser, emission A: 665 nm, emission B: 620 nm, integration start: 60 μs, integration time: 400 pts).
The BMG PHERAStar FSX MicroPlate Reader was used to measure fluorescence intensity at two emission wavelengths—665 nm and 620 nm—and report relative fluorescence units (RFU) for both emissions, as well as a ratio of the emissions (665 nm/620 nm)*10,000. The RFU values were normalized to percent inhibition as follows:
% inhibition=(((NC−IC)−(compound−IC))/(NC−IC))*100
where IC (inhibitor control, low signal)=mean signal of 1×Tb-MC1-1+Cy5 Bim peptide+inhibitor control or 100% inhibition of Mcl-1; NC (neutral control, high signal)=mean signal 1×Tb-MC1-1+Cy5 Bim peptide with DMSO only or 0% inhibition
An 11-point dose response curve was generated to determine IC50 values (using GenData) based on the following equation:
Y=Bottom+(Top−Bottom)/(1+10^((log IC50−X)*HillSlope))
where Y=% inhibition in the presence of X inhibitor concentration; Top=100% inhibition derived from the IC (mean signal of Mcl-1+inhibitor control); Bottom=0% inhibition derived from the NC (mean signal of Mcl-1+DMSO); Hillslope=Hill coefficient; and IC50=concentration of compound with 50% inhibition in relation to top/neutral control (NC).
In this assay [L]=8 nM and Kd=10 nM
Representative compounds of the present invention were tested according to the procedure as described above, with results as listed in the Table below (n.d. means not determined).

[2] = system: MOLP-8 human multiple myeloma cell line; experiment: MOLP8 Caspase-Glo 3/7 apoptosis induction assay; assay type: cell-based; details: MOLP-8 cells, 2 hours incubation at 37° C., averaged values over all runs on all batches
Source text: MCL-1 is a regulator of apoptosis and is highly over-expressed in tumor cells that escape cell death. The assay evaluates the cellular potency of small-molecule compounds targeting regulators of the apoptosis pathway, primarily MCL-1, Bfl-1, Bcl-2, and other proteins of the Bcl-2 family. Protein-protein inhibitors disrupting the interaction of anti-apoptotic regulators with BH3-domain proteins initiate apoptosis.
The Caspase-Glo® 3/7 Assay is a luminescent assay that measures caspase-3 and -7 activities in purified enzyme preparations or cultures of adherent or suspension cells. The assay provides a proluminescent caspase-3/7 substrate, which contains the tetrapeptide sequence DEVD. This substrate is cleaved to release aminoluciferin, a substrate of luciferase used in the production of light. Addition of the single Caspase-Glo® 3/7 Reagent in an “add-mix-measure” format results in cell lysis, followed by caspase cleavage of the substrate and generation of a “glow-type” luminescent signal.
This assay uses the MOLP-8 human multiple myeloma cell line, which is sensitive to MCL-1 inhibition.
Materials: • Perkin Elmer Envision • Multidrop 384 and small volume dispensing cassettes • Centrifuge • Countess automated cell counter • Countess counting chamber slides • Assay plate: ProxiPlate-384 Plus, White 384-shallow well Microplate • Sealing tape: Topseal A plus • T175 culture flask
Cell cultures were maintained between 0.2 and 2.0×10^6 cells/mL. The cells were harvested by collection in 50 mL conical tubes. The cells were then pelleted at 500 g for 5 mins before removing supernatant and resuspension in fresh pre-warmed culture medium. The cells were counted and diluted as needed.
The assay reagent was prepared by transferring the buffer solution to the substrate vial and mixing. The solution may be stored for up to 1 week at 4° C. with negligible loss of signal.
Compounds were delivered in assay-ready plates (Proxiplate) and stored at −20° C.
Assays always include 1 reference compound plate containing reference compounds. The plates were spotted with 40 nL of compounds (0.5% DMSO final in cells; serial dilution; 30 μM highest conc. 1/3 dilution, 10 doses, duplicates). The compounds were used at room temperature and 4 μL of pre-warmed media was added to all wells except column 2 and 23. The negative control was prepared by adding 1% DMSO in media. The positive control was prepared by adding the appropriate positive control compound in final concentration of 60 μM in media. The plate was prepared by adding 4 μL negative control to column 23, 4 μL positive control to column 2 and 4 μL cell suspension to all wells in the plate. The plate with cells was then incubated at 37° C. for 2 hours. The assay signal reagent is the Caspase-Glo solution described above, and 8 μL was added to all wells. The plates were then sealed and measured after 30 minutes.
The activity of a test compound was calculated as percent change in apoptosis induction as follows: • LC=median of the Low Control values • =Central Reference in Screener • =DMSO • =0% • HC=Median of the High Control values • =Scale Reference in Screener • =30 μM of positive control • =100% apoptosis induction
% Effect (AC50)=100−((sample−LC)/(HC−LC))*100
% Control=(sample/HC)*100
% Control min=((sample−LC)/(HC−LC))*100

Myeloid Cell Leukemia 1 (Mcl-1), sequence (Q07820 whole entry): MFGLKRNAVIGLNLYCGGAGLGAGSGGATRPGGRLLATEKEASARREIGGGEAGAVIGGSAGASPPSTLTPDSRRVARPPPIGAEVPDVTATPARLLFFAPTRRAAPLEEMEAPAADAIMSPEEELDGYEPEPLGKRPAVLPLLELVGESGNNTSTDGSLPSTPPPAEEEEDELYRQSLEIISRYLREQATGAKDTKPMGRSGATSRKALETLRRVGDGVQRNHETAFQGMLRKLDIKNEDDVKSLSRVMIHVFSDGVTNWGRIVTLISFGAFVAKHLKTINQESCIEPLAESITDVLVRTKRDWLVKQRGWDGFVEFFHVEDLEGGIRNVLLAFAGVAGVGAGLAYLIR

| SMILES | Ki [1] | AC50 [2] | AC50 ([2]; Homo sapiens, MOLP-8, 2 h) |
| --- | --- | --- | --- |
| C=CC1OCc2cc(n(C)n2)CCc2cc(c3ccc(F)cc3c2)OCCCn2c(C(=O)O)c(C)c3c(c(Cl)ccc32)-c2c1nn(C)c2C (single isomer, unassigned) [Compound 1] | 0.059 nM | 101 nM |  |
| C=CC1OCc2cc(n(C)n2)CCc2cc(c3ccc(F)cc3c2)OCCCn2c(C(=O)O)c(C)c3c(c(Cl)ccc32)-c2c1nn(C)c2C (single isomer, unassigned) [Compound 2] | 0.024 nM | 19.5 nM |  |
| COCCC1OCc2cc(n(C)n2)CCc2cc(c3ccc(F)cc3c2)OCCCn2c(C(=O)O)c(C)c3c(c(Cl)ccc32)-c2c1nn(C)c2C (single isomer, unassigned) [Compound 3] | 0.039 nM | 154 nM |  |
| COCCC1OCc2cc(n(C)n2)CCc2cc(c3ccc(F)cc3c2)OCCCn2c(C(=O)O)c(C)c3c(c(Cl)ccc32)-c2c1nn(C)c2C (single isomer, unassigned) [Compound 4] | 0.009 nM | 28.4 nM |  |
| COCCOCCC1OCc2cc(n(C)n2)CCc2cc(c3ccc(F)cc3c2)OCCCn2c(C(=O)O)c(C)c3c(c(Cl)ccc32)-c2c1nn(C)c2C (single isomer, unassigned) [Compound 5] | 0.011 nM |  | 22.6 nM |
| Cc1c(C(=O)O)n2c3ccc(Cl)c(c13)-c1c(nn(C)c1C)C(CCN1CCOCC1)OCc1cc(n(C)n1)CCc1cc(c3ccc(F)cc3c1)OCCC2 (single isomer, unassigned) [Compound 7] | 0.011 nM |  | 149 nM |
| Cc1c(C(=O)O)n2c3ccc(Cl)c(c13)-c1c(nn(C)c1C)C(CCN1CCN(C)CC1)OCc1cc(n(C)n1)CCc1cc(c3ccc(F)cc3c1)OCCC2 (single isomer, unassigned) [Compound 8] | 0.013 nM |  | 1160 nM |
| CCOCCC1OCc2cc(n(C)n2)CCc2cc(c3ccc(F)cc3c2)OCCCn2c(C(=O)O)c(C)c3c(c(Cl)ccc32)-c2c1nn(C)c2C (single isomer, unassigned) [Compound 9] | 0.009 nM |  | 43.6 nM |
| Cc1c(C(=O)O)n2c3ccc(Cl)c(c13)-c1c(nn(C)c1C)C(CCCO)OCc1cc(n(C)n1)CCc1cc(c3ccc(F)cc3c1)OCCC2 (single isomer, unassigned) [Compound 10] | 0.028 nM | 1060 nM |  |
| Cc1c(C(=O)O)n2c3ccc(Cl)c(c13)-c1c(nn(C)c1C)C(CCCO)OCc1cc(n(C)n1)CCc1cc(c3ccc(F)cc3c1)OCCC2 (single isomer, unassigned) [Compound 11] | 0.01 nM | 303 nM |  |
| COCCCC1OCc2cc(n(C)n2)CCc2cc(c3ccc(F)cc3c2)OCCCn2c(C(=O)O)c(C)c3c(c(Cl)ccc32)-c2c1nn(C)c2C (single isomer, unassigned) [Compound 12] | 0.015 nM | 57.8 nM |  |
| Cc1c(C(=O)O)n2c3ccc(Cl)c(c13)-c1c(nn(C)c1C)C(CN1CCOCC1)OCc1cc(n(C)n1)CCc1cc(c3ccc(F)cc3c1)OCCC2 (single isomer, unassigned) [Compound 13] | 0.058 nM |  | 1370 nM |
| COCCOCC1OCc2cc(n(C)n2)CCc2cc(c3ccc(F)cc3c2)OCCCn2c(C(=O)O)c(C)c3c(c(Cl)ccc32)-c2c1nn(C)c2C (single isomer, unassigned) [Compound 14] | 0.018 nM |  | 205 nM |
| COCC1OCc2cc(n(C)n2)CCc2cc(c3ccc(F)cc3c2)OCCCn2c(C(=O)O)c(C)c3c(c(Cl)ccc32)-c2c1nn(C)c2C (single isomer, unassigned) [Compound 15] | 0.048 nM | 66.1 nM |  |
| COCC1OCc2cc(n(C)n2)CCc2cc(c3ccc(F)cc3c2)OCCCn2c(C(=O)O)c(C)c3c(c(Cl)ccc32)-c2c1nn(C)c2C (single isomer, unassigned) [Compound 16] | 0.104 nM | 230 nM |  |
| Cc1c(C(=O)O)n2c3ccc(Cl)c(c13)-c1c(nn(C)c1C)C(C)OCc1cc(n(C)n1)CCc1cc(c3ccc(F)cc3c1)OCCC2 (single isomer, unassigned) [Compound 17] | 0.042 nM | 129 nM |  |
| Cc1c(C(=O)O)n2c3ccc(Cl)c(c13)-c1c(nn(C)c1C)C(C)OCc1cc(n(C)n1)CCc1cc(c3ccc(F)cc3c1)OCCC2 (single isomer, unassigned) [Compound 18] | 0.01 nM | 35.4 nM |  |
| Cc1c(C(=O)O)n2c3ccc(Cl)c(c13)-c1c(nn(C)c1C)C(CC(C)O)OCc1cc(n(C)n1)CCc1cc(c3ccc(F)cc3c1)OCCC2 (single isomer, unassigned) [Compound 19] | 0.057 nM |  | 1210 nM |
| Cc1c(C(=O)O)n2c3ccc(Cl)c(c13)-c1c(nn(C)c1C)C(CC(C)O)OCc1cc(n(C)n1)CCc1cc(c3ccc(F)cc3c1)OCCC2 (single isomer, unassigned) [Compound 20] | 0.023 nM | 683 nM |  |
| Cc1nn2c3c1-c1c(Cl)ccc4c1c(C)c(C(=O)O)n4CCCOc1cc(cc4cc(F)ccc14)CCc1cc(nn1C)CCC3OCC2 (stereo not drawn) [Compound 27] |  | 8.5 nM |  |
| Cc1nn2c3c1-c1c(Cl)ccc4c1c(C)c(C(=O)O)n4CCCOc1cc(cc4cc(F)ccc14)CCc1cc(nn1C)CCC3OCC2 (stereo not drawn) [Compound 28] |  | > 30 nM |  |
| Cc1nn2c3c1-c1c(Cl)ccc4c1c(C)c(C(=O)O)n4CCCOc1cc(cc4cc(F)ccc14)CCc1cc(nn1C)CCC3OCC2 (stereo not drawn) [Compound 30] |  | 52.8 nM |  |
| COCCn1nc2cc1CCc1cc(c3ccc(F)cc3c1)OCCCn1c(C(=O)O)c(C)c3c(c(Cl)ccc31)-c1c(C)nn3c1C(CC2)OCC3 (stereo not drawn) [Compound 31] |  |  | 48.6 nM |

Source: US20240124487A1, “BRANCHED MACROCYCLIC 4-(PYRAZOL-5-YL)-INDOLE DERIVATIVES AS INHIBITORS OF MCL-1” (JANSSEN PHARMACEUTICA NV, priority 2020, published 2024)
